Laboratory results: ChEMBL document CHEMBL3885881, “DrugMatrix”

Species: Rattus norvegicus
Assay: DrugMatrix - Regimen: Daily Repeat
Type: toxicity, organism-based, Sprague-Dawley
Parameters: regimen Daily Repeat, gender Male, age 6-8 weeks
Conditions: in vivo, po, 1200 mg/kg, route oral GAVAGE, dose level High, vehicle .5 % CMC; for ABSOLUTE BASOPHIL / ABSOLUTE EOSINOPHIL / ABSOLUTE LYMPHOCYTE / ABSOLUTE MONOCYTE / ABSOLUTE SEGMENTED NEUTROPHIL / BASOPHIL / EOSINOPHIL / ERYTHROCYTE COUNT / HEMATOCRIT / HEMOGLOBIN / LEUKOCYTE COUNT / LYMPHOCYTE / MEAN CORPUSCULAR HEMOGLOBIN / MEAN CORPUSCULAR HEMOGLOBIN CONCENTRATION / MEAN CORPUSCULAR VOLUME / MONOCYTE / NEUTROPHIL / NUCLEATED RED BLOOD CELLS / PLATELET COUNT: tissue Blood; for ALANINE AMINOTRANSFERASE / ALBUMIN / ALKALINE PHOSPHATASE / ASPARTATE AMINOTRANSFERASE / BLOOD UREA NITROGEN / CARBON DIOXIDE / CHLORIDE / CHOLESTEROL / CREATINE PHOSPHOKINASE / CREATININE / GLUCOSE / LACTATE DEHYDROGENASE / LIPASE / PHOSPHORUS / SODIUM / TOTAL BILIRUBIN / TOTAL PROTEIN / URIC ACID: tissue Plasma

NC(N)=Nc1nc(CSCCC(N)=NS(N)(=O)=O)cs1 [FAMOTIDINE]
ABSOLUTE BASOPHIL (72 h, time 3 day): 0 CELLS/uL
ABSOLUTE EOSINOPHIL (72 h, time 3 day): 179 CELLS/uL
ABSOLUTE LYMPHOCYTE (72 h, time 3 day): 9906 CELLS/uL
ABSOLUTE MONOCYTE (72 h, time 3 day): 48.67 CELLS/uL
ABSOLUTE SEGMENTED NEUTROPHIL (72 h, time 3 day): 1366.33 CELLS/uL
BASOPHIL (72 h, time 3 day): 0%
EOSINOPHIL (72 h, time 3 day): 1.67%
ERYTHROCYTE COUNT (72 h, time 3 day): 5.88 x10E6/uL
HEMATOCRIT (72 h, time 3 day): 36.73%
HEMOGLOBIN (72 h, time 3 day): 13.97 G/DL
LEUKOCYTE COUNT (72 h, time 3 day): 11.5 x10E3/uL
LYMPHOCYTE (72 h, time 3 day): 85.33%
MEAN CORPUSCULAR HEMOGLOBIN (72 h, time 3 day): 23.73 pg
MEAN CORPUSCULAR HEMOGLOBIN CONCENTRATION (72 h, time 3 day): 38.03 G/DL
MEAN CORPUSCULAR VOLUME (72 h, time 3 day): 62.5 fL
MONOCYTE (72 h, time 3 day): 0.67%
NEUTROPHIL (72 h, time 3 day): 12.33%
NUCLEATED RED BLOOD CELLS (72 h, time 3 day): 0 /100WBC
PLATELET COUNT (72 h, time 3 day): 1159.67 x10E3/uL
ALANINE AMINOTRANSFERASE (72 h, time 3 day): 56 u/L
ALBUMIN (72 h, time 3 day): 4.43 G/DL
ALKALINE PHOSPHATASE (72 h, time 3 day): 396.33 u/L
ASPARTATE AMINOTRANSFERASE (72 h, time 3 day): 89 u/L
BLOOD UREA NITROGEN (72 h, time 3 day): 16.33 mg/dL
CARBON DIOXIDE (72 h, time 3 day): 26.33 mmol/L
CHLORIDE (72 h, time 3 day): 106.33 MEQ/L
CHOLESTEROL (72 h, time 3 day): 85.33 mg/dL
CREATINE PHOSPHOKINASE (72 h, time 3 day): 213.67 u/L
CREATININE (72 h, time 3 day): 0.2 mg/dL
GLUCOSE (72 h, time 3 day): 152.33 mg/dL
LACTATE DEHYDROGENASE (72 h, time 3 day): 137.33 u/L
LIPASE (72 h, time 3 day): 8.67 u/L
PHOSPHORUS (72 h, time 3 day): 13.77 mg/dL
SODIUM (72 h, time 3 day): 148.03 MEQ/L
TOTAL BILIRUBIN (72 h, time 3 day): 0.27 mg/dL
TOTAL PROTEIN (72 h, time 3 day): 6.4 G/DL
URIC ACID (72 h, time 3 day): 2.37 mg/dL
ABSOLUTE BASOPHIL (120 h, time 5 day): 0 CELLS/uL
ABSOLUTE EOSINOPHIL (120 h, time 5 day): 254 CELLS/uL
ABSOLUTE LYMPHOCYTE (120 h, time 5 day): 15699.67 CELLS/uL
ABSOLUTE MONOCYTE (120 h, time 5 day): 74 CELLS/uL
ABSOLUTE SEGMENTED NEUTROPHIL (120 h, time 5 day): 1405.67 CELLS/uL
BASOPHIL (120 h, time 5 day): 0%
EOSINOPHIL (120 h, time 5 day): 1.33%
ERYTHROCYTE COUNT (120 h, time 5 day): 5.4 x10E6/uL
HEMATOCRIT (120 h, time 5 day): 34.6%
HEMOGLOBIN (120 h, time 5 day): 13.17 G/DL
LEUKOCYTE COUNT (120 h, time 5 day): 17.43 x10E3/uL
LYMPHOCYTE (120 h, time 5 day): 90%
MEAN CORPUSCULAR HEMOGLOBIN (120 h, time 5 day): 24.43 pg
MEAN CORPUSCULAR HEMOGLOBIN CONCENTRATION (120 h, time 5 day): 38.03 G/DL
MEAN CORPUSCULAR VOLUME (120 h, time 5 day): 64.2 fL
MONOCYTE (120 h, time 5 day): 0.33%
NEUTROPHIL (120 h, time 5 day): 8.33%
NUCLEATED RED BLOOD CELLS (120 h, time 5 day): 0 /100WBC
PLATELET COUNT (120 h, time 5 day): 1387 x10E3/uL
ALANINE AMINOTRANSFERASE (120 h, time 5 day): 59 u/L
ALBUMIN (120 h, time 5 day): 4.4 G/DL
ALKALINE PHOSPHATASE (120 h, time 5 day): 383.67 u/L
ASPARTATE AMINOTRANSFERASE (120 h, time 5 day): 87.67 u/L
BLOOD UREA NITROGEN (120 h, time 5 day): 18 mg/dL
CARBON DIOXIDE (120 h, time 5 day): 25.67 mmol/L
CHLORIDE (120 h, time 5 day): 103.67 MEQ/L
CHOLESTEROL (120 h, time 5 day): 59.33 mg/dL
CREATINE PHOSPHOKINASE (120 h, time 5 day): 259.33 u/L
CREATININE (120 h, time 5 day): 0.27 mg/dL
GLUCOSE (120 h, time 5 day): 182 mg/dL
LACTATE DEHYDROGENASE (120 h, time 5 day): 250.33 u/L
LIPASE (120 h, time 5 day): 8.67 u/L
PHOSPHORUS (120 h, time 5 day): 14.07 mg/dL
SODIUM (120 h, time 5 day): 145.8 MEQ/L
TOTAL BILIRUBIN (120 h, time 5 day): 0.17 mg/dL
TOTAL PROTEIN (120 h, time 5 day): 6.3 G/DL
URIC ACID (120 h, time 5 day): 2.17 mg/dL
